Assay results taken from US4288449A, “N-Arylsulfonylpyrroles, their preparation, and therapeutic agents containing these compounds” (BASF Aktiengesellschaft, priority 1978, dated 1981).

Experiments:
in vivo = settings: mouse, po
Description: To determine the acute toxicity, the substances are administered orally to groups of 10 female mice of the NMRI strain, weighing from 20 to 23 g. The mean lethal dose (LD 50) is determined after a period of observation of 72 hours.

[1] = Diuretic action after oral administration (excretion of electrolyte and of water); type: in vivo, dog (male beagles); settings: for Excretion of electrolyte: Na^+ / Na^+/K^+ quotient / Excretion of water: H2 O / Excretion of electrolyte: K^+ / Excretion of electrolyte: Cl^- / times more active than Furosemid / Na^+ excretion between the 2nd and 6th hours after administration: dog, oral; for Excretion of electrolyte: Na^+: dose mg/kg: 9 0.464, 15 0.215, 114 0.1, 116 0.1, 120 0.215, Furosemid 1.0; for Na^+/K^+ quotient: control 1.0; for times more active than Furosemid: by doses giving Na^+ and H2 O excretion similar to Furosemid; for Na^+ excretion between the 2nd and 6th hours after administration / diuretic action: in words
Description: The diuretic action was determined on male beagles weighing from 10 to 15 kg.
The animals are kept without food for 18 hours before starting the experiment. 2 hours before administration of the test substance, they are given 20 ml/kg of water orally. The test substances are administered orally as a tragacanth suspension. Thereafter, 4 ml/kg of water are administered 6 times at intervals of 1 hour.
Urine samples are taken by catheterization at intervals of 2 hours, over a period of 6 hours. […]

[2] = 2 hours, doses as E1, control 9,3
[3] = 2 hours, doses as E1, control 67
[4] = 2 hours, doses as E1, control 81
[5] = 6 hours, doses as E6, control 27
[6] = 6 hours, doses as E6, control 184
[7] = 6 hours, doses as E6, control 238

| Structure (SMILES) | LD50 at 72 h (in vivo) [mg/kg] | selectivity ratio (in vivo) | Excretion of electrolyte: Na^+ ([1]; 2 hours, control 66) | Na^+/K^+ quotient ([1]; 2 hours, doses as E1) | Excretion of water: H2 O [1, 2] [mL/kg] | Excretion of electrolyte: K^+ [1, 3] [μval/kg] | Excretion of electrolyte: Cl^- [1, 4] | Excretion of electrolyte: Na^+ ([1]; 6 hours, control 212) | Excretion of water: H2 O [1, 5] [mL/kg] | Excretion of electrolyte: K^+ [1, 6] [μval/kg] | Excretion of electrolyte: Cl^- [1, 7] | times more active than Furosemid [1] [times] | Na^+ excretion between the 2nd and 6th hours after administration [1] | diuretic action [1] |
| --- | --- | --- | --- | --- | --- | --- | --- | --- | --- | --- | --- | --- | --- | --- |
| CCc1ccc(C)n1S(=O)(=O)c1cc(C(=O)O)cc(NCc2ccsc2)c1Oc1ccccc1 [Example 116] | > 2150 | > 21500 | 1,150 μval/kg | 4.2 | 22 | 271 | 1,510 μval/kg | 1,560 μval/kg | 40 | 473 | 2,100 μval/kg | 10 |  |  |
| CCc1ccc(CC)n1S(=O)(=O)c1cc(C(=O)O)cc(NCc2ccsc2)c1Oc1ccccc1 [Example 114] | > 2150 | > 21500 | 1410 µval/kg | 4.8 | 26 | 295 | 1,780 μval/kg | 1,640 μval/kg | 42 | 442 | 2,080 μval/kg | 10 |  |  |
| O=C(O)c1cc(NCc2ccccc2)c(Oc2ccccc2)c(S(=O)(=O)n2cccc2)c1 [Example 9] | 957 | 2060 | 1,520 μval/kg | 5.1 | 27 | 298 | 1,940 μval/kg | 2930 µval/kg | 56 | 810 | 4,200 μval/kg | 2.2 | a distinct further increase in excretion | not only better action, but also longer-lasting action, than Furosemid |
| O=C(O)c1cc(NCc2ccsc2)c(Oc2ccccc2)c(S(=O)(=O)n2cccc2)c1 [Example 15] | 1470 | 6840 | 1,240 μval/kg | 3.7 | 23 | 333 | 1,520 μval/kg | 1,940 μval/kg | 45 | 642 | 2,440 μval/kg |  | a distinct further increase in excretion | not only better action, but also longer-lasting action, than Furosemid |
| Cc1ccc(C)n1S(=O)(=O)c1cc(C(=O)O)cc(NCc2ccsc2)c1Nc1ccccc1 [Example 120] | > 2150 | > 10000 | 1260 µval/kg | 5.6 | 19 | 227 | 1,600 μval/kg | 2,050 μval/kg | 41 | 527 | 2,760 μval/kg |  |  |  |
| NS(=O)(=O)c1cc(C(=O)O)c(NCc2ccco2)cc1Cl [Furosemid, 4-chloro-N-(2-furylmethyl)-5-sulfamylanthranilic acid, reference compound] |  |  |  | 3.1 |  |  |  |  |  |  |  |  |  |  |
